PubChem BioAssay AID1259407 (Chemical Carcinogenesis Research Information System (CCRIS), 2018)
Entries after “also recorded” stand apart in the source; their conditions may differ. Activity calls are given as the source filed them. No rule for the calls is given here.

Tested on: CCRIS mutagenicity, Ames/micronucleus/aberration tests
Assay: CCRIS mutagenicity studies
[1] = Test System: AMES SALMONELLA TYPHIMURIUM, Strain/Indicator: TA98, Metabolic Activation: NONE, Method: PREINCUBATION
[2] = Test System: AMES SALMONELLA TYPHIMURIUM, Strain/Indicator: TA100, Metabolic Activation: NONE, Method: PREINCUBATION
[3] = Test System: AMES SALMONELLA TYPHIMURIUM, Strain/Indicator: TA1535, Metabolic Activation: NONE, Method: PREINCUBATION
[4] = Test System: AMES SALMONELLA TYPHIMURIUM, Strain/Indicator: TA1537, Metabolic Activation: NONE, Method: PREINCUBATION
[5] = Test System: AMES SALMONELLA TYPHIMURIUM, Strain/Indicator: TA100, Metabolic Activation: RAT, LIVER, S-9, AROCLOR 1254, Method: PREINCUBATION

Measured: mutagenic call

CNC(=O)c1cccc(NCC(=O)NCCc2ccc(OC)c(OC)c2)c1
inactive: [1] inactive; negative | Test System: AMES SALMONELLA TYPHIMURIUM, Strain/Indicator: TA98, Metabolic Activation: S-9, Method: PREINCUBATION inactive; negative | [2] inactive; negative | Test System: AMES SALMONELLA TYPHIMURIUM, Strain/Indicator: TA100, Metabolic Activation: S-9, Method: PREINCUBATION inactive; negative | [3] inactive; negative | Test System: AMES SALMONELLA TYPHIMURIUM, Strain/Indicator: TA1535, Metabolic Activation: S-9, Method: PREINCUBATION inactive; negative | [4] inactive; negative | Test System: AMES SALMONELLA TYPHIMURIUM, Strain/Indicator: TA1537, Metabolic Activation: S-9, Method: PREINCUBATION inactive; negative | Test System: E. COLI, Strain/Indicator: WP2 UVRA, Metabolic Activation: NONE, Method: PREINCUBATION inactive; negative | Test System: E. COLI, Strain/Indicator: WP2 UVRA, Metabolic Activation: S-9, Method: PREINCUBATION inactive; negative

O=C(O)c1occ(-c2ccccc2)c1-c1ccccc1
inactive: Test System: AMES SALMONELLA TYPHIMURIUM, Strain/Indicator: TA98, Metabolic Activation: NONE, Method: STANDARD PLATE inactive; negative | Test System: AMES SALMONELLA TYPHIMURIUM, Strain/Indicator: TA100, Metabolic Activation: NONE, Method: STANDARD PLATE inactive; negative

C[C@@H](CN=[N+]=[N-])c1ccccc1
active: Test System: AMES SALMONELLA TYPHIMURIUM, Strain/Indicator: TA100, Metabolic Activation: RAT, LIVER, S-9, PCB, Method: PREINCUBATION active; positive
inactive: [2] inactive; negative

Cc1cc(C)cc(OC(=O)N(C)N=O)c1
active: Test System: E. COLI WP2, Strain/Indicator: WP2, Metabolic Activation: NONE, Method: STANDARD PLATE active; positive

Nc1c(O)ccc2ccccc12
inactive: [5] inactive; negative

O=c1n(CC2CO2)c(=O)n(CC2CO2)c(=O)n1CC1CO1 (centres undefined)
inactive: End Point: IN VITRO CHROMOSOMAL ABERRATIONS, Test System: CHINESE HAMSTER LUNG CELLS (CHL), Metabolic Activation: RAT, LIVER, S-9, KC-400 inactive; negative | [4] inactive; negative | Test System: AMES SALMONELLA TYPHIMURIUM, Strain/Indicator: TA1537, Metabolic Activation: RAT LIVER S-9, PHENOBARBITAL AND BETA-NAPHTHOFLAVONE, Method: PREINCUBATION inactive; negative | Test System: E.COLI, Strain/Indicator: WP2UVRA, Metabolic Activation: NONE, Method: PREINCUBATION inactive; negative | Test System: E.COLI, Strain/Indicator: WP2UVRA, Metabolic Activation: RAT LIVER S-9, PHENOBARBITAL AND BETA-NAPHTHOFLAVONE, Method: PREINCUBATION inactive; negative
active: End Point: IN VITRO CHROMOSOMAL ABERRATIONS, Test System: CHINESE HAMSTER LUNG CELLS (CHL), Metabolic Activation: NONE active; positive (structural changes) | End Point: IN VITRO CHROMOSOMAL ABERRATIONS, Test System: CHINESE HAMSTER OVARY CELLS (CHO), Metabolic Activation: NONE active; positive (structural changes) | End Point: IN VITRO CHROMOSOMAL ABERRATIONS, Test System: CHINESE HAMSTER OVARY CELLS (CHO), Metabolic Activation: RAT, LIVER, S-9, AROCLOR 1254 active; positive (structural changes) | End Point: IN VITRO CHROMOSOMAL ABERRATIONS, Test System: CHL CELLS, Metabolic Activation: RAT, LIVER, S-9, SODIUM PHENOBARBITAL AND 5,6-BENZOFLAVONE active; positive (structural changes) | End Point: IN VITRO CHROMOSOMAL ABERRATIONS, Test System: CHL CELLS, Metabolic Activation: S-9 active; positive; interlaboratory comparison between 2 labs; all reported positive resul; also recorded: active; positive (structural changes); interlaboratory comparison between 2 labs; both r | End Point: IN VITRO CHROMOSOMAL ABERRATIONS, Test System: CHO CELLS, Metabolic Activation: S-9 active; positive (structural changes); interlaboratory comparison between 2 labs; both r; also recorded: active; positive; interlaboratory comparison among 3 labs; all reported positive results | End Point: IN VITRO CHROMOSOMAL ABERRATIONS, Test System: CHO-LB CELLS, Metabolic Activation: NONE active; positive | End Point: IN VITRO CHROMOSOMAL ABERRATIONS, Test System: CHO-LB CELLS, Metabolic Activation: RAT, LIVER, S-9, AROCLOR 1254 active; positive | Test System: AMES SALMONELLA TYPHIMURIUM, Strain/Indicator: TA98, Metabolic Activation: HAMSTER, LIVER, S-9, AROCLOR 1254 (30%), Method: PREINCUBATION active; positive | [1] active; positive | Test System: AMES SALMONELLA TYPHIMURIUM, Strain/Indicator: TA98, Metabolic Activation: RAT LIVER S-9, PHENOBARBITAL AND BETA-NAPHTHOFLAVONE, Method: PREINCUBATION active; positive | Test System: AMES SALMONELLA TYPHIMURIUM, Strain/Indicator: TA98, Metabolic Activation: RAT, LIVER, S-9, AROCLOR 1254 (30%), Method: PREINCUBATION active; positive | Test System: AMES SALMONELLA TYPHIMURIUM, Strain/Indicator: TA100, Metabolic Activation: HAMSTER, LIVER, S-9, AROCLOR 1254 (30%), Method: PREINCUBATION active; positive | [2] active; positive | Test System: AMES SALMONELLA TYPHIMURIUM, Strain/Indicator: TA100, Metabolic Activation: RAT LIVER S-9, PHENOBARBITAL AND BETA-NAPHTHOFLAVONE, Method: PREINCUBATION active; positive | Test System: AMES SALMONELLA TYPHIMURIUM, Strain/Indicator: TA100, Metabolic Activation: RAT, LIVER, S-9, AROCLOR 1254 (30%), Method: PREINCUBATION active; positive | [3] active; positive | Test System: AMES SALMONELLA TYPHIMURIUM, Strain/Indicator: TA1535, Metabolic Activation: RAT LIVER S-9, PHENOBARBITAL AND BETA-NAPHTHOFLAVONE, Method: PREINCUBATION active; positive

CC(CCl)OC(C)CCl (centres undefined)
active: End Point: IN VITRO CHROMOSOMAL ABERRATIONS, Test System: CHINESE HAMSTER OVARY CELLS, Metabolic Activation: RAT, LIVER, S-9, AROCLOR 1254 active; positive; precipitation occurred at 497, 730 and 993 ug/ml
inactive: End Point: IN VITRO CHROMOSOMAL ABERRATIONS, Test System: CHINESE HAMSTER OVARY CELLS, Metabolic Activation: NONE inactive; negative; precipitation occurred at all doses

Cl/C=C(\Cl)SCc1ccccc1
active: [5] active; positive
inactive: [2] inactive; negative

CCCCN(CCCCO)N=O
active: Test System: AMES SALMONELLA TYPHIMURIUM, Strain/Indicator: TA1535, Metabolic Activation: RAT, LIVER, S-9, AROCLOR, Method: PREINCUBATION active; positive | Test System: AMES SALMONELLA TYPHIMURIUM, Strain/Indicator: TA1535, Metabolic Activation: RAT, LIVER, S-9, KC500 OR PHENOBARBITAL, Method: LIQUID SUSPENSION active; positive | Test System: AMES SALMONELLA TYPHIMURIUM, Strain/Indicator: TA1535, Metabolic Activation: RAT, LIVER, S-9, SODIUM PHENOBARBITONE, Method: PREINCUBATION active; positive
inactive: [3] inactive; negative | Test System: AMES SALMONELLA TYPHIMURIUM, Strain/Indicator: TA1535, Metabolic Activation: RAT, LIVER, HEPATOCYTES, Method: PREINCUBATION inactive; negative | Test System: AMES SALMONELLA TYPHIMURIUM, Strain/Indicator: TA1535, Metabolic Activation: RAT, LIVER, S-9, Method: PREINCUBATION inactive; negative
